Columns and labels:
Toxicity, mouse, s.c. = type: in vivo; settings: in vivo, sc; for LD50: mouse; for selectivity ratio: mouse s.c., LD50 / writhing ED50, read-out: Index LD50/ED50
mouse [1] = test: Analgesia, writhing test, mouse s.c.; type: in vivo; settings: for ED50: sc, mouse s.c.
From the text: (§1) The compounds of the present invention, that is, those embraced by formula I above and their non-toxic, pharmacologically acceptable acid addition salts, have useful pharmacodynamic properties. More particularly, they exert a therapeutically useful effect upon the central nervous system in warm-blooded animals, such as mice, especially analgesic and morphine-antagonistic activities, which were confirmed in the writhing test and the Haffner test. Pursuant to prevailing teachings, this agonistic/antagonistic activity spectrum points toward the absence of or a very low abuse potential.

mouse [2] = test: Morphine-antagonism, mouse (Nalorphine = 1); type: in vivo; settings: for Morphine-antagonism (Nalorphine = 1): mouse, relative potency
From the text: as §1

mouse [3] = test: Toxicity, mouse, s.c.; type: in vivo
[4] = test system: withdrawn morphine dependent rats; test: Suppression of abstinence symptoms in withdrawn morphine dependent rats; type: in vivo, rat
From the text: as §1

[5] = test system: withdrawn morphine dependent monkeys; test: Suppression of abstinence symptoms in withdrawn morphine dependent monkeys; type: in vivo, monkey

Structure (SMILES)	LD50 (Toxicity, mouse, s.c.)	selectivity ratio (Toxicity, mouse, s.c.)	ED50 (mouse [1])	antagonistic component (mouse [2]; morphine antagonism, in words)	Morphine-antagonism (Nalorphine = 1) (mouse [2])	therapeutic index compared with 2-furfuryl-2'-hydroxy-5,9-α-dimethyl-6,7-benzomorphan (mouse [3]; vs. 2-furfuryl compound)	therapeutic index compared to pentazocine (mouse [3]; vs. pentazocine)	analgesic activity compared with 2-furfuryl-2'-hydroxy-5,9-α-dimethyl-6,7-benzomorphan (mouse [1]; vs. 2-furfuryl compound)	suppression of abstinence symptoms [4]	suppression of abstinence symptoms [5]
Cc1ccoc1CN1CC[C@@]2(C)c3cc(O)ccc3C[C@@H]1[C@@H]2C (relative stereo) [2-(3-methyl-furfuryl)-2'-hydroxy-5,9-α-dimethyl-6,7-benzomorphan]	305 mg/kg	508	0.6 mg/kg	does not have the desired antagonistic component	inactive	–	–	–	–	–
CC(C)=CCN1CCC2(C)c3cc(O)ccc3CC1C2C (stereo not shown) [Pentazocine]	220 mg/kg	157	1.4 mg/kg	–	0.025	–	–	–	–	–
C[C@H]1[C@H]2Cc3ccc(O)cc3[C@]1(C)CCN2Cc1ccco1 (relative stereo) [2-furfuryl-2'-hydroxy-5,9-α-dimethyl-6,7-benzomorphan]	292 mg/kg	16	18 mg/kg	–	1	–	–	–	–	–
C[C@H]1[C@H]2Cc3ccc(O)cc3[C@]1(C)CCN2Cc1ccno1 (relative stereo) [Example 1, 5,9-α-Dimethyl-2'-hydroxy-2-(5-isoxazolyl-methyl)-6,7-benzomorphan]	1080 mg/kg	1800	0.6 mg/kg	–	0.1	significantly superior	far superior	significantly superior	not capable of suppressing the abstinence symptoms	not capable of suppressing the abstinence symptoms

Reference: patent publication US4133888A, “Analgesic and morphine antagonistic 2'-hydroxy-2-(5-isoxazolyl-methyl)-6,7-benzomorphans and salts thereof” (Boehringer Ingelheim GmbH, priority 1977, dated 1979)
